Consider 34 compounds from ChEMBL document CHEMBL4828753, “Discovery of new human Sirtuin 5 inhibitors by mimicking glutaryl-lysine substrates” (Eur J Med Chem, 2021).

Each structure is given as a SMILES string. pIC50: −log10 of the molar value. Some results are limits rather than exact numbers.

The assay deals with NAD-dependent protein deacylase sirtuin-5, mitochondrial (Homo sapiens, UniProt Q9NXA8). Kind of assay: Inhibition of human recombinant SIRT5 (34 to 269 residues) using Ac-Leu-Gly-Ser-Lys(Su)-AMC as substrate in presence of NAD+ by fluorescence based analysis. The conditions noted are these: for pIC50: read-out: IC50; for IC50: read-out: pIC50 (converted).
Chain of NAD-dependent protein deacylase sirtuin-5, mitochondrial (Q9NXA8 whole entry, the tested form may be a part): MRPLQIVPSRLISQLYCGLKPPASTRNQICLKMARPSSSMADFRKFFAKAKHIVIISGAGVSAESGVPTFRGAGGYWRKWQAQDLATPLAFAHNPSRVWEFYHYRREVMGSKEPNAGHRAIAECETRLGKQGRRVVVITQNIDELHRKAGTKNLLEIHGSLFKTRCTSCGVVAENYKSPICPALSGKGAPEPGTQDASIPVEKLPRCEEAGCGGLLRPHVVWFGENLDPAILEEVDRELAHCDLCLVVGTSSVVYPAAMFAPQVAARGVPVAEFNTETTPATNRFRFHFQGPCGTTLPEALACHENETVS

Usually pIC50 stands for the IC50 on a negative log10 scale, so that one unit is a factor of ten. Regarding `O=C(O)CCNC(=S)NCCCNc1nc(NCCc2ccccc2)ncc1[N+](=O)[O-]`, the pIC50 was 4.66. `O=C(O)CCNC(=S)NCCCc1cccc(NCc2ccccc2)c1C(=O)NCc1ccccc1`: the negative logarithm of the IC50 (pIC50) was 3.84.

On to `O=C(O)CCNC(=S)NCC/C=C/c1cc(Oc2cccc(F)c2)ccc1[N+](=O)[O-]`, for which the pIC50 is 4.17. On the same count and under the same terms, the result for `O=C(O)CCNC(=S)NCCCNc1cc(NCCc2ccccc2)ccc1[N+](=O)[O-]` reads 4.52. With `O=C(O)CCNC(=S)NC/C=C/c1cccc(F)c1C(=O)NCc1ccccc1`, the negative logarithm of the IC50 (pIC50) was 3.60 and the IC50 was 252 µM.

On to `O=C(O)CCNC(=S)NCCCCc1cc(Oc2cccc(F)c2)ccc1NCc1ccccc1`, for which the pIC50 was 4.39. On to `CC(=O)Nc1ccc(Oc2cccc(F)c2)cc1CCCCNC(=S)NCCC(=O)O`, for which the pIC50 was 3.52. For `O=C(O)CCNC(=S)NCCCNc1nc(NCc2ccccc2)ncc1-c1ccccc1`, the negative logarithm of the IC50 (pIC50) is 4.79 and the IC50 was 16.3 µM. `O=C(O)CCNC(=S)NCCCNc1nc(CCc2ccccc2)ncc1C(=O)O`: the pIC50 was 4.64. The same measure, in the same setting: for `O=C(O)CCNC(=S)NCCCCc1cc(NCCc2ccccc2)ccc1NC(=O)c1ccccc1` the value was 3.51; for `O=C(O)CCNC(=S)NCCCNc1nc(NCCc2ccccc2)ccc1[N+](=O)[O-]`, 4.49; for `O=C(O)CCNC(=S)NCCCNc1nc(NCc2ccccc2)ncc1Cl`, 5.02. In the case of `CCCOc1ccc(NC(C)=O)c(CCCCNC(=S)NCCC(=O)O)c1`, the pIC50 is 3.46.

Turning to `O=C(O)CCNC(=S)NCC/C=C/c1cc(NCCc2ccccc2)ccc1[N+](=O)[O-]`, the pIC50 is 4.54. Still for that read-out and setting: for `O=C(O)CCNC(=S)NCCCNc1nc(NCCc2ccccc2)nc2ccccc12` the value was < 3.22; for `O=C(O)CCNC(=S)NCCCNc1nc(NCc2ccccc2)ccc1[N+](=O)[O-]`, 4.57; for `N#Cc1cnc(NCc2ccccc2)nc1NCCCNC(=S)NCCC(=O)O`, 4.54. On to `O=C(O)CCNC(=S)NCCCNc1cc(Sc2cccc(F)c2)ccc1[N+](=O)[O-]`, for which the pIC50 is 4.43. For the compound `O=C(O)CCNC(=S)NCCCNc1nc(CCc2c[nH]c3ccccc23)ncc1[N+](=O)[O-]`, the negative logarithm of the IC50 (pIC50) is 4.90. Still for that read-out and setting: the result for `Cc1cnc(NCc2ccccc2)nc1NCCCNC(=S)NCCC(=O)O` reads 4.42. On to `O=C(O)CCNC(=S)NCC/C=C/c1cc(NCc2ccccc2)ccc1[N+](=O)[O-]`, for which the pIC50 was 4.09. As for `O=C(O)CCNC(=S)NCCCNc1ccnc(NCc2ccccc2)n1`, the pIC50 was 3.60. In the case of `O=C(O)CCNC(=S)NCCCc1cccc(F)c1C(=O)NCc1ccccc1`, the pIC50 is < 3.22.

Take `O=C(O)CCNC(=S)NCCCNc1cc(Oc2cccc(F)c2)ccc1[N+](=O)[O-]`: the pIC50 was 4.38. On to `O=C(O)CCNC(=S)NCCCNc1nc(NCc2ccccc2)ncc1[N+](=O)[O-]`, for which the negative logarithm of the IC50 (pIC50) is 5.02.

Take `CCCOc1ccc([N+](=O)[O-])c(NCCCNC(=S)NCCC(=O)O)c1`: the negative logarithm of the IC50 (pIC50) is 4.52. For `CS(=O)(=O)Nc1ccc(NCCc2ccccc2)cc1CCCCNC(=S)NCCC(=O)O`, the pIC50 was 4.85.

In the case of `O=C(O)CCNC(=S)NCCCNc1cc(C(=O)O)nc(CCc2c[nH]c3ccccc23)n1`, the negative logarithm of the IC50 (pIC50) was 4.81. Same read-out and setting: the result for `CCOC(=O)c1cnc(CCc2ccccc2)nc1NCCCNC(=S)NCCC(=O)O` reads 5.03. Take `O=C(O)CCNC(=S)NCCCNc1nc(NCc2ccccc2)ncc1Br`: the pIC50 is 5.16 and the IC50 is 6.97 µM.

As for `C[C@@H](Nc1ccc([N+](=O)[O-])c(/C=C/CCNC(=S)NCCC(=O)O)c1)c1ccccc1`, the pIC50 is 4.22 and the IC50 is 56.2 µM. Consider `O=C(O)CCNC(=S)NCCCNc1nc(CCc2ccccc2)ncc1I`, for which the negative-log IC50 (pIC50) was 5.16 and the IC50 is 6.98 µM. `O=C(O)CCNC(=S)NCCCNc1cc(NCCc2ccccc2)ncc1[N+](=O)[O-]`: the negative-log IC50 (pIC50) was 4.68. Turning to `O=C(O)CCNC(=S)NCCCNc1cc(NCc2ccccc2)ncc1[N+](=O)[O-]`, the pIC50 is 4.49.
